In BindingDB's records for doi:10.1111/j.1747-0285.2008.00745.x (University of Connecticut, 2009):

These molecules were tested against T1, Dihydrofolate reductase (Candida glabrata (strain ATCC 2001 / BCRC 20586 / JCM 3761 / NBRC 0622 / NRRL Y-65 / CBS 138), UniProt Q6FPH0) (assay: Enzyme Inhibition Assay).
T1 sequence (Q6FPH0 whole entry): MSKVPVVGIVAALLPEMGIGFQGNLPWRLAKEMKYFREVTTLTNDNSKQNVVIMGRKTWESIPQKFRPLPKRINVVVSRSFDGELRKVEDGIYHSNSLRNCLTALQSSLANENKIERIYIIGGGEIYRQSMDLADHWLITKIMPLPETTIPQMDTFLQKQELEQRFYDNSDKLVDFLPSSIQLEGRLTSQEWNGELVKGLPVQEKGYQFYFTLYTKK
Procedure: Enzyme activity assay were performed by monitoring the rate of enzyme-dependent NADPH consumption at an absorbance of 340 nm over 5 min.
An IC50 of 0.61 nM was found for `COc1cc(-c2ccc(C)cc2)cc([C@@H](C)C#Cc2c(C)nc(N)nc2N)c1` (racemic) in this work.
An IC50 of 6.4 nM was found for `COc1ccc(-c2cc(OC)cc(C(C)C#Cc3c(C)nc(N)nc3N)c2)cc1` (racemic) in this work.
An IC50 of 10 nM was found for `COc1cc(-c2ccc(C(C)(C)C)cc2)cc(C(C)C#Cc2c(C)nc(N)nc2N)c1` (racemic) [Biphenyl antifolate, 24] in this work.
An IC50 of 0.55 nM was found for `COc1cc(-c2cc(C)cc(C)c2)cc([C@@H](C)C#Cc2c(C)nc(N)nc2N)c1` (racemic) [Biphenyl antifolate, 2] in this work.
An IC50 of 5.5 nM was found for `COc1cc(-c2c(C)cccc2C)cc(C(C)C#Cc2c(C)nc(N)nc2N)c1` (racemic) [Biphenyl antifolate, 6] in this work.
An IC50 of 7.3 nM was found for `COc1cc(-c2ccccc2C)cc(C(C)C#Cc2c(C)nc(N)nc2N)c1` (stereo unspecified) [5-{3-[3-methoxy-5-(2-methylphenyl)phenyl]but-1-yn-1-yl}-6-methylpyrimidine-2,4-diamine] in this work.
